The results in this text go back to patent US12220419B2, “BCL-2 inhibitors” (Newave Pharmaceutical Inc., priority 2018, dated 2025).

For orientation: IC50 means the concentration that inhibits the measured activity by half.

Counter-ions that a name gives are not always drawn. Like-named read-outs stand apart in the source and are kept apart here.

The target in experiment [1] is BCL-2 (Homo sapiens (Human), UniProt P10415). Put plainly: BCL-2 competition binding (fluorescence polarization) assay. To be noted: read-out: BCL2 IC50. How it is done: Biological Example 1: BCL-2 Competition Binding (Fluorescence Polarization) Assay
The fluorescence-labeled 23 amino acid peptide BH3 was purchased from CalBiochem ([…]). […] This binding assay was performed in 96-well plate and with each assay contained 15 and 30 nM of labeled peptide and purified BCL-2 protein (purchased from R&D Systems, Inc). The assay buffer contained 20 mM Hepes (pH 7.0), 50 mM KCl, 5 mM MgCl2, 20 mM Na2MoO4, 0.1 mg/ml Bovine Gamma Globulin and 0.01% NP40. Compounds were diluted in DMSO and added to the final assay with concentration range from 20 μM to 2 nM. The polarization degree (mP) value was determined by BioTek Synergy II with background subtraction after 3 hours of incubation at room temperature. IC50 was calculated using Prism software with sigmoidal dose-response curve fitting. ABT-737 was used as reference compound. Such assays, carried out with a range of doses of test compounds, allowed the determination of an approximate IC50 value.
In general terms: Polarisation of emitted light reports the rotation of a fluorescent probe.

In experiment [2] the test system is BCL-2-dependent acute lymphoblastic leukemia (ALL) cell line RS4;11. Put plainly: In vitro anti-proliferation assay (ATPlite luminescence) in RS4;11. To be noted: RS4;11 cells, about 72 hours, medium with 5% FBS or 10% normal human serum. Type of experiment: cell-based. How it is done: Cell antiproliferation was assayed by PerkinElmer ATPlite™ Luminescence Assay System. Briefly, the various test cancer cell lines were plated at a density of about 1×10^4 cells per well in Costar 96-well plates, and were incubated with different concentrations of compounds for about 72 hours in medium supplemented with 5% FBS or 10% normal human serum (NHS). One lyophilized substrate solution vial was then reconstituted by adding 5 mL of substrate buffer solution, and was agitated gently until the solution was homogeneous. About 50 μL of mammalian cell lysis solution was added to 100 μL of cell suspension per well of a microplate, and the plate was shaken for about five minutes in an orbital shaker at 700 rpm. This procedure was used to lyse the cells and to stabilize the ATP. Next, 50 μL substrate solution was added to the wells and microplate was shaken for five minutes in an orbital shaker at 700 rpm. Finally, the luminescence was measured by a PerkinElmer TopCount® Microplate Scintillation Counter. Such assays, carried out with a range of doses of test compounds, allowed the determination of the cellular anti-antiproliferative IC50 of the compounds of the present invention.

Where [3] appears, read: fluorescein-labeled BH3 peptide 15 nM, purified BCL-2 protein 30 nM, 3 hours incubation at room temperature.

Chain of BCL-2 (P10415 whole entry): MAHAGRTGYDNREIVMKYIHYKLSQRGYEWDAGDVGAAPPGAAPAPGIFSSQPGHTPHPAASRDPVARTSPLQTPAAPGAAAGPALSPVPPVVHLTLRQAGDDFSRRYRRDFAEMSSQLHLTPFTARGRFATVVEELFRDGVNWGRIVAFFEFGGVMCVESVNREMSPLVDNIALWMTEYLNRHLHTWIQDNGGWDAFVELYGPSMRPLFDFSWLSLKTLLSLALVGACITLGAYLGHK

For the compound `CC1(C)CCC(CN2CCN(c3ccc(C(=O)NS(=O)(=O)c4ccc(NCCOCCOCCOCCOCCNc5cccc6c5C(=O)N(C5CCC(=O)NC5=O)C6=O)c([N+](=O)[O-])c4)c(N4CCCOc5nc6[nH]ccc6cc54)c3)CC2)=C(c2ccc(Cl)cc2)C1` (stereo not drawn) [Example 51, 4-(4-[[2-(4-chlorophenyl)-4,4-dimethylcyclohex-1-en-1-yl]methyl]piperazin-1-yl)-N-[4-(15-[[2-(2,6-dioxopiperidin-3-yl)-1,3-dioxoisoindol-4-yl]amino]-4,7,10,13-tetraoxa-1-azapentadecan-1-yl)-3-nitrobenzenesulfonyl]-2-[14-oxa-2,4,10-triazatricyclo[7.5.0.0^[3,7]]tetradeca-1(9),2,5,7-tetraen-10-yl]benzamide], the IC50 in experiment [1] (setting [3]) worked out at 0.9 nM; in experiment [2], 62 nM.
In the case of `Cc1ncsc1-c1ccc(CNC(=O)[C@@H]2C[C@@H](O)CN2C(=O)[C@@H](NC(=O)CCOCCOCCOCCOCCOCCNc2ccc(S(=O)(=O)NC(=O)c3ccc(N4CCN(CC5=C(c6ccc(Cl)cc6)CC(C)(C)CC5)CC4)cc3N3CCCOc4nc5[nH]ccc5cc43)cc2[N+](=O)[O-])C(C)(C)C)cc1` [Example 55, (2S,4R)-1-[(2S)-2-[1-[(4-[[4-(4-[[2-(4-chlorophenyl)-4,4-dimethylcyclohex-1-en-1-yl]methyl]piperazin-1-yl)-2-[14-oxa-2,4,10-triazatricyclo[7.5.0.0^[3,7]]tetradeca-1(9),2,5,7-tetraen-10-yl]phenyl]formamidosulfonyl]-2-nitrophenyl)amino]-3,6,9,12,15-pentaoxaoctadecan-18-amido]-3,3-dimethylbutanoyl]-4-hydroxy-N-[[4-(4-methyl-1,3-thiazol-5-yl)phenyl]methyl]pyrrolidine-2-carboxamide], the IC50 in experiment [1] (setting [3]) turned out to be 1.1 nM; in experiment [2], 75 nM.
On to `CC1(C)CCC(CN2CCN(c3ccc(C(=O)NS(=O)(=O)c4ccc(NC[C@H]5COCCO5)c([N+](=O)[O-])c4)c(N4CCOCc5nc6[nH]ccc6cc54)c3)CC2)=C(c2ccc(Cl)cc2)C1` [Example 41, 4-(4-[[2-(4-chlorophenyl)-4,4-dimethylcyclohex-1-en-1-yl]methyl]piperazin-1-yl)-N-(4-[[(2S)-1,4-dioxan-2-ylmethyl]amino]-3-nitrobenzenesulfonyl)-2-[13-oxa-2,4,10-triazatricyclo[7.5.0.0^[3,7]]tetradeca-1(9),2,5,7-tetraen-10-yl]benzamide hydrochloride], for which the IC50 amounted to 0.1 nM in experiment [1] and 1.1 nM in experiment [2].
On the same counts, the results for `CC1(C)CCC(CN2CCN(c3ccc(C(=O)NS(=O)(=O)c4ccc(NCCN5CCN(CCOCCOCCNc6cccc7c6C(=O)N(C6CCC(=O)NC6=O)C7=O)CC5)c([N+](=O)[O-])c4)c(N4CCCOc5nc6[nH]ccc6cc54)c3)CC2)=C(c2ccc(Cl)cc2)C1` (stereo not drawn) [Example 50, 4-(4-[[2-(4-chlorophenyl)-4,4-dimethylcyclohex-1-en-1-yl]methyl]piperazin-1-yl)-N-(4-[[2-(4-[2-[2-(2-[[2-(2,6-dioxopiperidin-3-yl)-1,3-dioxoisoindol-4-yl]amino]ethoxy)ethoxy]ethyl]piperazin-1-yl)ethyl]amino]-3-nitrobenzenesulfonyl)-2-[14-oxa-2,4,10-triazatricyclo[7.5.0.0^[3,7]]tetradeca-1(9),2,5,7-tetraen-10-yl]benzamide] are 0.6 nM and 43 nM.
Take `CC1(C)CCC(CN2CCN(c3ccc(C(=O)NS(=O)(=O)c4ccc(NCC5CCOCC5)c([N+](=O)[O-])c4)c(N4CCCSc5nc6[nH]ccc6cc54)c3)CC2)=C(c2ccc(Cl)cc2)C1` [Example 27, 4-(4-((4′-chloro-5,5-dimethyl-3,4,5,6-tetrahydro-[1,1′-biphenyl]-2-yl)methyl)piperazin-1-yl)-2-(3,4-dihydro-2H-pyrrolo[3′,2′:5,6]pyrido[2,3-b][1,4]thiazepin-1(7H)-yl)-N-((3-nitro-4-(((tetrahydro-2H-pyran-4-yl)methyl)amino)phenyl)sulfonyl)benzamide]: the IC50 in experiment [1] (setting [3]) amounted to 0.3 nM; in experiment [2] it was 21 nM.
With `CC1(C)CCC(CN2CCN(c3ccc(C(=O)NS(=O)(=O)c4ccc(NCC5CCOCC5)c([N+](=O)[O-])c4)c(N4CCCCOc5nc6[nH]ccc6cc54)c3)CC2)=C(c2ccc(Cl)cc2)C1` [Example 69, 4-(4-[[2-(4-chlorophenyl)-4,4-dimethylcyclohex-1-en-1-yl]methyl]piperazin-1-yl)-N-(3-nitro-4-[[(oxan-4-yl)methyl]amino]benzenesulfonyl)-2-[15-oxa-2,4,10-triazatricyclo[7.6.0.0^[3,7]]pentadeca-1(9),2,5,7-tetraen-10-yl]benzamide], the figures for the IC50 in experiment [1] and in experiment [2] were 0.6 nM and 28.6 nM, respectively.
As for `O=C(NS(=O)(=O)c1ccc(NC[C@H]2COCCO2)c([N+](=O)[O-])c1)c1ccc(N2CCN(CC3=C(c4ccc(Cl)cc4)CCCCC3)CC2)cc1N1CCCOc2nc3[nH]ccc3cc21` [Example 75, 4-(4-[[2-(4-chlorophenyl)cyclohept-1-en-1-yl]methyl]piperazin-1-yl)-N-(4-[[(2S)-1,4-dioxan-2-ylmethyl]amino]-3-nitrobenzenesulfonyl)-2-[14-oxa-2,4,10-triazatricyclo[7.5.0.0^[3,7]]tetradeca-1(9),2,5,7-tetraen-10-yl]benzamide], the figures for the IC50 in experiment [1] (setting [3]) and in experiment [2] were 0.6 nM and 2.7 nM, respectively.
The matching figures for `Cc1ncsc1-c1ccc(CNC(=O)[C@@H]2C[C@@H](C)CN2C(=O)[C@@H](NC(=O)CCOCCOCCOCCNc2ccc(S(=O)(=O)NC(=O)c3cc(N4CCN(CC5=C(c6ccc(Cl)cc6)CC(C)(C)CC5)CC4)ccc3N3CCCOc4nc5[nH]ccc5cc43)cc2[N+](=O)[O-])C(C)(C)C)cc1` [Example 59, (2S,4R)-1-[(2S)-2-[3-[2-(2-[2-[(4-[[5-(4-[[2-(4-chlorophenyl)-4,4-dimethylcyclohex-1-en-1-yl]methyl]piperazin-1-yl)-2-[14-oxa-2,4,10-triazatricyclo[7.5.0.0^[3,7]]tetradeca-1(9),2,5,7-tetraen-10-yl]phenyl]formamidosulfonyl]-2-nitrophenyl)amino]ethoxy]ethoxy)ethoxy]propanamido]-3,3-dimethylbutanoyl]-4-methyl-N-[[4-(4-methyl-1,3-thiazol-5-yl)phenyl]methyl]pyrrolidine-2-carboxamide]: 1.1 nM and 84 nM.
Regarding `CC1(C)CCC(c2ccc(Cl)cc2)=C(CN2CCN(c3ccc(C(=O)NS(=O)(=O)c4ccc(NC[C@H]5COCCO5)c([N+](=O)[O-])c4)c(N4CCCOc5nc6[nH]ccc6cc54)c3)CC2)C1` [Example 73, 4-(4-[[2-(4-chlorophenyl)-5,5-dimethylcyclohex-1-en-1-yl]methyl]piperazin-1-yl)-N-(4-[[(2S)-1,4-dioxan-2-ylmethyl]amino]-3-nitrobenzenesulfonyl)-2-[14-oxa-2,4,10-triazatricyclo[7.5.0.0^[3,7]]tetradeca-1(9),2,5,7-tetraen-10-yl]benzamide], the IC50 came to 0.9 nM in experiment [1] (setting [3]) and 3.1 nM in experiment [2].
